Laboratory results reported in patent publication US20240208964A1, “PYRIDOPYRIMIDINES AND METHODS OF THEIR USE” (PYRIDOPYRIMIDINES AND METHODS OF THEIR USE, priority 2020, published 2024).
Like-named read-outs stand apart in the source and are kept apart here.

Experiments:
[1] = target: PIKfyve (PIKFYVE-NanoLuc fusion in HEK293 cells) (Homo sapiens (Human), UniProt Q9Y2I7); assay: NanoBRET TE Intracellular Kinase Assay, K-8 (Promega) cell-based assay; conditions: 2 hours, read-out: hPIKfyve BRET IC50
PIKfyve (PIKFYVE-NanoLuc fusion in HEK293 cells), sequence (Q9Y2I7 whole entry, the tested form may be a part): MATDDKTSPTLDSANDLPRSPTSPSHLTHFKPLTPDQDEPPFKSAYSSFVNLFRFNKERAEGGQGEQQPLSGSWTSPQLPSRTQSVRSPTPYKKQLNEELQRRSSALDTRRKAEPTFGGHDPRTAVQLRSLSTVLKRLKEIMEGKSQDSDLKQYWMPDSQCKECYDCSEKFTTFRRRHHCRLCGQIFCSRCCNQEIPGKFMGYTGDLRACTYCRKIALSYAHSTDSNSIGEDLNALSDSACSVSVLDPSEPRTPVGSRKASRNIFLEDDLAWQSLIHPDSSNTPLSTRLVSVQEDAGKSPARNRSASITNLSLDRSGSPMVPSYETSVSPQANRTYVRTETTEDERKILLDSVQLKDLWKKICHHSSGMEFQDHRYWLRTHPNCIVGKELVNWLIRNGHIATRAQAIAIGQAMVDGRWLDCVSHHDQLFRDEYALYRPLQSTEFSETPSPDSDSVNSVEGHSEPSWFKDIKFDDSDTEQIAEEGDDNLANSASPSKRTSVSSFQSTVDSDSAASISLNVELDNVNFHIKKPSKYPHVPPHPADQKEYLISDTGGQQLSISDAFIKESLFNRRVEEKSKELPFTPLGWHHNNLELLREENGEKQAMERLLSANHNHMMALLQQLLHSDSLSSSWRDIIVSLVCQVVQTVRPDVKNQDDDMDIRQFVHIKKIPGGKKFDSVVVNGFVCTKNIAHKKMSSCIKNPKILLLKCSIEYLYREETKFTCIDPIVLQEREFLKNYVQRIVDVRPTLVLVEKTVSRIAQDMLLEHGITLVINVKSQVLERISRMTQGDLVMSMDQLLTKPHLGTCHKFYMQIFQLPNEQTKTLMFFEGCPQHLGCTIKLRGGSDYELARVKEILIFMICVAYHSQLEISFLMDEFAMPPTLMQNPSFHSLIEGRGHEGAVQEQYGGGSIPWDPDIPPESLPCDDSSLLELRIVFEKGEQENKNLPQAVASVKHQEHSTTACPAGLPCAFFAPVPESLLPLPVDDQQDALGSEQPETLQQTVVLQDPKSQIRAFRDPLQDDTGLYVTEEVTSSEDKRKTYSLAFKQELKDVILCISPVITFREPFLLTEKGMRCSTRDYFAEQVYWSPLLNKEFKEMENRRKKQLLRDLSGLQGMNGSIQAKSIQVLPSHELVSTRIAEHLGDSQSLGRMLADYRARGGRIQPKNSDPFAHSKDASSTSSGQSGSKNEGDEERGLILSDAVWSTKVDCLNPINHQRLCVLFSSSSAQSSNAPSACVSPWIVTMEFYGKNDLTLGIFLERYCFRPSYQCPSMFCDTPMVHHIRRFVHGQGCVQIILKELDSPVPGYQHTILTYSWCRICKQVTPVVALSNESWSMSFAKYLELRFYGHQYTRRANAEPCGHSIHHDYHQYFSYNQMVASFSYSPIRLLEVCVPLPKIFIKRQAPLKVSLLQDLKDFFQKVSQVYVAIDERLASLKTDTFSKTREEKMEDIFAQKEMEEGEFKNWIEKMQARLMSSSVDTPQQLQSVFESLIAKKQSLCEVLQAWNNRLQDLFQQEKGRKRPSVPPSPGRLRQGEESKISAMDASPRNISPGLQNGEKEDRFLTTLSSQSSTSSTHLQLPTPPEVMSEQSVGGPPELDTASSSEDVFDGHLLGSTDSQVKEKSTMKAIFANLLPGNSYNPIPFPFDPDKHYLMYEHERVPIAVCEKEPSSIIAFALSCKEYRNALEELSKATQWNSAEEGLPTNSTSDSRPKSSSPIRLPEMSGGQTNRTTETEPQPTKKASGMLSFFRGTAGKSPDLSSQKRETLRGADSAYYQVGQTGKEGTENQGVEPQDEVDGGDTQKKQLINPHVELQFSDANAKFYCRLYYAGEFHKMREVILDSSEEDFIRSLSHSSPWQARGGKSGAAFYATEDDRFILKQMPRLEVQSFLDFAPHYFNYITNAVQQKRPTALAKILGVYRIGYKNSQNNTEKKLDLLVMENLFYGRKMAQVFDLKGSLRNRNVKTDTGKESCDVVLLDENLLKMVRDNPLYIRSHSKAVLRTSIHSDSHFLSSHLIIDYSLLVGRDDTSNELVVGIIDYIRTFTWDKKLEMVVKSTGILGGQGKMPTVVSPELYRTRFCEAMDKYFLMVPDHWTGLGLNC
Description: NanoBRET™ TE Intracellular Kinase Assay, K-8 (Promega) Cell-Based Assay. Intracellular inhibition of PIKfyve was assayed using Promega's NanoBRET™ TE Intracellular Kinase Assay, K-8 according to manufacturer's instructions. A dilution series of test compounds was added for 2 hours to HEK293 cells transfected for a minimum of 20 hours with PIKFYVE-NanoLuc® Fusion Vector (Promega) containing a full-length PIKfyve according to manufacturer's specifications in a 96-well plate. Kinase activity was detected by addition of a NanoBRET™ tracer reagent, which was a proprietary PIKfyve inhibitor appended to a fluorescent probe (BRET, bioluminescence resonance energy transfer). Test compounds were tested at concentrations of 10, 3, 1, 0.3, 0.1, 0.03, 0.01, 0.003 μM. BRET signals were measured by a GloMax®Discover Multimode Microplate Reader (Promega) using 0.3 sec/well integration time, 450BP donor filter and 600LP acceptor filters. Active test compounds that bound PIKfyve and displaced the tracer reduced BRET signal. IC50 values were then calculated by fitting the data to the normalized BRET ratio.

[2] = target: full-length human PIKFYVE (GST-PIKFYVE) (Homo sapiens (Human), UniProt Q9Y2I7, L932S/Q1183K/Q995L/S1033A/S696N/T998S); assay: PIKfyve biochemical assay (ADP-Glo Kinase assay, Carna Biosciences)
full-length human PIKFYVE (GST-PIKFYVE), sequence (Q9Y2I7 whole entry S696N/L932S/Q995L/T998S/S1033A/Q1183K, the tested form may be a part): as the sequence (Q9Y2I7 whole entry, the tested form may be a part) above, with S696N, L932S, Q995L, T998S, S1033A, Q1183K counted along it
Source text: PIKfyve Biochemical Assay. The biochemical PIKFyve inhibition assays were run by Carna Biosciences according to proprietary methodology based on the Promega ADP-Glo™ Kinase assay. A full-length human PIKFYVE [1-2098(end) amino acids and S696N, L932S, Q995L, T998S, S1033A and Q1183K of the protein having the sequence set forth in NCBI Reference Sequence No. NP_055855.2] was expressed as N-terminal GST-fusion protein (265 kDa) using baculovirus expression system. GST-PIKFYVE was purified by using glutathione sepharose chromatography and used in an ADP-Glo™ Kinase assay (Promega). Reactions were set up by adding the test compound solution, substrate solution, ATP solution and kinase solution, each at 4× final concentrations. Reactions were prepared with assay buffer (50 mM MOPS, 1 mM DTT, pH7.2), mixed, and incubated in black 384 well polystyrene plates for 1 hour at room temperature. ADP-Glo™ reagent was then added for 40 minutes, followed by kinase detection reagent for an additional 40 minutes. The kinase activity was evaluated by detecting relative light units on a luminescence plate reader. Samples were run in duplicate from 10 μM to 3 nM. […] IC50 values were calculated from concentration vs % inhibition curves by fitting to a four-parameter logistic curve.
The biochemical PIKFyve inhibition assays were run by Carna Biosciences according to proprietary methodology based on the Promega ADP-Glo™ Kinase assay. A full-length human PIKFYVE [1-2098(end) amino acids and S696N, L932S, Q995L, T998S, S1033A and Q1183K of accession number NP_055855.2] was expressed as N-terminal GST-fusion protein (265 kDa) using baculovirus expression system. GST-PIKFYVE was purified by using glutathione sepharose chromatography and used in an ADP-Glo™ Kinase assay (Promega).
Reactions were set up by adding the test compound solution, substrate solution, ATP solution and kinase solution, each at 4× final concentrations. Reactions were prepared with assay buffer (50 mM MOPS, 1 mM DTT, pH7.2), mixed, and incubated in black 384 well polystyrene plates for 1 hour at room temperature. ADP-Glo™ reagent was then added for 40 minutes, followed by kinase detection reagent for an additional 40 minutes. The kinase activity was evaluated by detecting relative light units on a luminescence plate reader. Samples were run in duplicate from 10 uM to 3 nM. […] IC50 values were calculated from concentration vs % inhibition curves by fitting to a four-parameter logistic curve.

FAB1 TDP-43 yeast strain = assay: Propidium iodide viability assay in FAB1 TDP-43 control yeast strain; format: cell-based; conditions: for FAB1 TDP-43 (active/inactive): FAB1 TDP-43 yeast model
Source text: (§1) Generation of TDP-43 yeast model expressing human PIKfyve. Human PIKFYVE (“entry clone”) was cloned into pAG416GPDccdB (“destination vector”) according to standard Gateway cloning protocols (Invitrogen, Life Technologies). The resulting pAG416GPD-PIKFYVE plasmids were amplified in E. coli and plasmid identity confirmed by restriction digest and Sanger sequencing. Lithium acetate/polyethylene glycol-based transformation was used to introduce the above PIKFYVE plasmid into a BY4741 yeast strain auxotrophic for the ura3 gene and deleted for two transcription factors that regulate the xenobiotic efflux pumps, a major efflux pump, and FAB1, the yeast ortholog of PIKFYVE (MATa, snq2::KILeu2; pdr3::Klura3;pdrl::NATMX; fab1::G418^R, his3;leu2;ura3;met15;LYS2+) (FIG. 2). Transformed yeast were plated on solid agar plates with complete synthetic media lacking uracil (CSM-ura) and containing 2% glucose. Individual colonies harboring the control or PIKFYVE TDP-43 plasmids were recovered. A plasmid containing wild-type TDP-43 under the transcriptional control of the GAL1 promoter and containing the hygromycin-resistance gene as a selectable marker was transformed into the fab1::G418^R pAG416GPD-PIKFYVE yeast strain (FIG. 1). Transformed yeast were plated on CSM-ura containing 2% glucose and 200 μg/mL […] after overnight recovery in media lacking antibiotic. Multiple independent isolates were further evaluated for cytotoxicity and TDP-43 expression levels.
(§2) Viability Assay. A control yeast strain with the wild-type yeast FAB1 gene and TDP-43 (“FAB1 TDP-43”, carries empty pAG416 plasmid), and the “PIKFYVE TDP-43” yeast strain, were assessed for toxicity using a propidium iodide viability assay. Both yeast strains were transferred from solid CSM-ura/2% glucose agar plates into 3 mL of liquid CSM-ura/2% glucose media for 6-8 hours at 30° C. with aeration. Yeast cultures were then diluted to an optical density at 600 nm wavelength (OD600) of 0.005 in 3 mL of CSM-ura/2% raffinose and grown overnight at 30° C. with aeration to an OD600 of 0.3-0.8. Log-phase overnight cultures were diluted to OD600 of 0.005 in CSM-ura containing either 2% raffinose or galactose and 150 μL dispensed into each well of a flat bottom 96-well plates. Compounds formulated in 100% dimethyl sulfoxide (DMSO) were serially diluted in DMSO and 1.5 μL diluted compound transferred to the 96-well plates using a multichannel pipet. Wells containing DMSO alone were also evaluated as controls for compound effects. Tested concentrations ranged from 15 μM to 0.11 μM. Cultures were immediately mixed to ensure compound distribution and covered plates incubated at 30° C. for 24 hours in a stationary, humified incubator.
(§3) Upon the completion of incubation, cultures were assayed for viability using propidium iodide (PI) to stain for dead/dying cells. A working solution of PI was made where, for each plate, 1 μL of 10 mM PI was added to 10 mL of CSM-ura (raffinose or galactose). The final PI solution (50 μL/well) was dispensed into each well of a new round bottom 96-well plate. The overnight 96-well assay plate was then mixed with a multichannel pipet and 50 μL transferred to the PI-containing plate. This plate was then incubated for 30 minutes at 30° C. in the dark. A benchtop flow cytometer (Miltenyi MACSquant) was then used to assess red fluorescence (B2 channel), forward scatter, and side scatter (with following settings: gentle mix, high flow rate, fast measurement, 10,000 events). Intensity histograms were then gated for “PI-positive” or “PI-negative” using the raffinose and galactose cultures treated with DMSO as controls. The DMSO controls for raffinose or galactose-containing cultures were used to determine the window of increased cell death and this difference set to 100. All compounds were similarly gated and then compared to this maximal window to establish the percent reduction in PI-positive cells.

[3] = test system: PIKFYVE TDP-43 yeast strain; assay: Propidium iodide viability assay in PIKFYVE TDP-43 yeast strain; format: cell-based; conditions: for PIKfyve TDP-43 (active/inactive): PIKFYVE TDP-43 yeast model; for IC50: Saccharomyces cerevisiae, reduction in PI-positive cells, 24 hours, up to 15 μM
Source text: as §1, §2, §3

[4] = ADP-Glo, full-length human PIKFYVE, read-out: hPIKfyve IC50

| IC50 [1] [µM] | IC50 [2, 4] [µM] | SMILES | IC50 [3] [µM] | other results |
| --- | --- | --- | --- | --- |
| 0.1 to 1 | 0.01 to 0.1 | Cc1cccc(-c2cc(O)n(-c3nc(N4CCOCC4)c4ncccc4n3)n2)c1 [compound 26, 1-(4-morpholinopyrido[3,2-d]pyrimidin-2-yl)-3-m-tolyl-1H-pyrazol-5-ol] |  |  |
|  |  | Cc1cccc(/C=N/Nc2cc(N3CCOCC3)n3nc(-c4ccncc4)cc3n2)c1 [drawing 292] |  | FAB1 TDP-43 (active/inactive) (FAB1 TDP-43 yeast strain): Inactive; PIKfyve TDP-43 (active/inactive) [3]: Active |
| 0.1 to 1 | 0.01 to 0.1 | c1ccc(-c2ccn(-c3nc(N4CCOCC4)c4ncccc4n3)n2)cc1 [compound 8, 4-(2-(3-phenyl-1H-pyrazol-1-yl)pyrido[3,2-d]pyrimidin-4-yl)morpholine] |  |  |
|  |  | c1ccc(N2CCc3c(OCc4cccnc4)nc(N4CCOCC4)nc32)cc1 | 2.69 |  |
|  |  | Cc1cccc(/C=N/Nc2cc(N3CCOCC3)nc(OCCc3ccc(CN)cc3)n2)c1 | 1.12 |  |
|  |  | CN(C)c1cc(N2CCOCC2)n2nc(-c3ccncc3)cc2n1 |  | FAB1 TDP-43 (active/inactive) (FAB1 TDP-43 yeast strain): Inactive; PIKfyve TDP-43 (active/inactive) [3]: Inactive |
|  |  | c1ccc(-c2ccnc(-c3cc(N4CCOCC4)nc(OCc4ccncc4)n3)n2)cc1 | 1.45 |  |
|  |  | Cc1cccc(/C=N/Nc2nc(N3CCOCC3)c3nc(-c4ccncc4)n(C)c3n2)c1 [drawing 308] | 4.72 |  |
|  |  | Cc1cccc(/C=N/Nc2cc(N3CC4CC3CO4)n3nc(-c4ccncc4)cc3n2)c1 (centres unmarked) |  | FAB1 TDP-43 (active/inactive) (FAB1 TDP-43 yeast strain): Inactive; PIKfyve TDP-43 (active/inactive) [3]: Active |
| 0.01 to 0.1 | 0.01 to 0.1 | C1=C(c2cnc3c(N4CCOCC4)nc(-n4ccc(-c5ccccc5)n4)nc3c2)CCOC1 [compound 21, 4-(7-(3,6-dihydro-2H-pyran-4-yl)-2-(3-phenyl-1H-pyrazol-1-yl)pyrido[3,2-d]pyrimidin-4-yl)morpholine] |  |  |
| 0.1 to 1 | 0.1 to 1 | c1ccc(Nc2nc(N3CCOCC3)c3ncc(Cc4cccnc4)cc3n2)cc1 [compound 79] |  |  |
|  |  | Cc1cccc(/C=N/Nc2nc(N3CCOCC3)c3ncccc3n2)c1 [drawing 311] | 8.21 |  |
| 0.1 to 1 | 0.01 to 0.1 | c1ccc(-c2ccn(-c3nc(N4CCOCC4)c4ncc(C5CCCO5)cc4n3)n2)cc1 (centres unmarked) [compound 22, 4-(2-(3-phenyl-1H-pyrazol-1-yl)-7-(tetrahydrofuran-2-yl)pyrido[3,2-d]pyrimidin-4-yl)morpholine] |  |  |
|  |  | Oc1cc(C2CCOCC2)nn1-c1cc(N2CCOCC2)n2nc(-c3ccncc3)cc2n1 | 9.11 |  |
| 0.1 to 1 | 0.01 to 0.1 | Cc1cccc(-c2cc(O)n(-c3nc(N4CCOCC4)c4ncc(Cc5cccnc5)cc4n3)n2)c1 [compound 81] |  |  |
| 0.01 to 0.1 | 0.01 to 0.1 | Cc1cccc(/C=N/Nc2nc(N3CCOCC3)c3ncccc3n2)c1 [compound 24, (E)-4-(2-(2-(3-methylbenzylidene)hydrazinyl)pyrido[3,2-d]pyrimidin-4-yl)morpholine] |  |  |
|  |  | Oc1cc(-c2ccccc2)nn1-c1cc(N2CCOCC2)n2nc(-c3ccncc3)nc2n1 | 0.693 |  |
|  |  | Cc1cccc(/C=N/Nc2nc(N3CCOCC3)c3nc(-c4ccncc4)n(C)c3n2)c1 [drawing 294] |  | FAB1 TDP-43 (active/inactive) (FAB1 TDP-43 yeast strain): Inactive; PIKfyve TDP-43 (active/inactive) [3]: Active |
| 0.1 to 1 | 0.01 to 0.1 | c1ccc(-c2ccn(-c3nc(N4CCOCC4)c4ncc(C5CCOCC5)cc4n3)n2)cc1 [compound 20, 4-[2-(3-phenylpyrazol-1-yl)-7-tetrahydropyran-4-yl-pyrido[3,2-d]pyrimidin-4-yl]morpholine] |  |  |
| 0.1 to 1 | < 0.01 | c1ccc(-c2nccc(-c3nc(N4CCOCC4)c4ncccc4n3)n2)cc1 [compound 39, 4-(2-(2-phenylpyrimidin-4-yl)pyrido[3,2-d]pyrimidin-4-yl)morpholine] |  |  |
|  |  | Cc1cccc(/C=N/Nc2cc(N3CCOCC3)n3nc(-c4ccncc4)cc3n2)c1 [APY0201, reference compound] |  | viable cells in FAB1 TDP-43 (FAB1 TDP-43 yeast strain; range of compound concentrations (only 0.23 μM is shown), FIG. 5): no increase in viable cells; propidium iodide-positive dead cells in PIKFYVE TDP-43 ([3]; 0.23 μM, FIG. 6): reduced the population of propidium iodide-positive dead cells |
|  |  | N#Cc1cc(N2CCOCC2)n2nc(-c3ccncc3)cc2n1 |  | FAB1 TDP-43 (active/inactive) (FAB1 TDP-43 yeast strain): Inactive; PIKfyve TDP-43 (active/inactive) [3]: Inactive |
|  |  | c1ccc(-c2cccc(-c3cc(N4CCOCC4)n4nc(-c5ccncc5)cc4n3)n2)cc1 | 0.23 |  |
|  |  | Fc1cccc(-c2ccnn2-c2nc(N3CCOCC3)c3ncccc3n2)c1 | 5.75 | IC50 ([2]; values plotted in FIG. 7, read-out: PIKFYVE Biochemistry (IC50)): > 10 µM |
| 0.01 to 0.1 | 0.01 to 0.1 | Cc1cccc(/C=N/Nc2nc(N3CCOCC3)c3ncc(Cc4cccnc4)cc3n2)c1 [compound 80] |  |  |
| 0.1 to 1 | 0.01 to 0.1 | c1ccc(-c2ccn(-c3nc(N4CCOCC4)c4ncc(C5CCCCO5)cc4n3)n2)cc1 (centres unmarked) [compound 18, 4-(2-(3-Phenyl-1H-pyrazol-1-yl)-7-(tetrahydro-2H-pyran-2-yl)pyrido[3,2-d]pyrimidin-4-yl)morpholine] |  |  |
